Data taken from US20070010446A1, “METHODS FOR TREATING INFLAMMATION USING THYROID STIMULATING HORMONE” (ZymoGenetics, Inc., priority 2003, published 2007).

Assays:
C57BL/6 mice [1] = test: Delayed Type Hypersensitivity (DTH), OVA ear challenge; assay type: in vivo; settings: Expt 3 (n = 7), adrenalectomized (ADX) mice; treatment i.p. at challenge (d 7); Dex […], TSH 2.0 mg/kg
thymus = settings: mouse, in vivo
C57BL/6 mice [2] = test: LPS-induced mild endotoxemia mouse model, serum cytokines by ELISA; assay type: in vivo; settings: treatment i.p. 1 hour prior, Dex […], TSH 2.0 mg/kg, Thyroxine 0.05 mg/kg; for TNFα (1 hr) +/− S.E.: serum 1 hour after 25 ug LPS i.p., PBS group 6990.8; for IL-6 (4 hr) +/− S.E.: serum 4 hours after 25 ug LPS i.p., PBS group 45.6
Protocol: The LPS-induced mild endotoxemia model is an in vivo model designed to mimic acute endotoxemia/sepsis by challenging mice with a low, non-lethal dose of bacterial endotoxin (lipopolysaccharide, LPS). Serum is collected at various timepoints (1-72 hours) after intraperitoneal LPS injection and analyzed for altered expression of a wide variety of pro- and anti-inflammatory cytokines and acute phase proteins that mediate the inflammatory response. The model provides a means to assess the potential anti-inflammatory effects of therapeutic candidates during a robust inflammatory response.
In this model, an initial experiment is run to determine the production of proinflammatory cytokines in response to an injection of LPS. For example, six-month old Balb/c (Charles River Laboratories, Wilmington, Mass.) female mice are injected with 25 μg LPS (Sigma) in sterile PBS intraperitoneally (i.p.). Serum samples are collected at 0, 1, 4, 8, 16, 24, 48 and 72 hours later, and are assayed for serum levels of inflammatory mediators, such as IL-1β, IL-6, TNFα, and IL-10. Commercially available ELISA kits (Biosource International, Camarillo, Calif.) can be used to deterime the serum levels. In this assay TNFα levels and IL-1β levels can be measured at 1 hour post-LPS injection, and IL-6, IL-10 and IL-10 can be measured at 4 hours post injection. From these inflammatory mediators, one or more is chosen as a representative biological marker(s) for the LPS model of mild endotoxemia.
Next, C57BL/6 mice (Charles River Laboratories; 5 mice/group) are treated i.p. with PBS, or the test compound in PBS 1 hour prior to LPS challenge. The mice are then challenged with 25 ug of LPS i.p. and are bled at 1 hour and 4 hours after LPS injection. The level of the representative biological marker(s) is analyzed by ELISA.
Thyroxine (0.05 mg/kg) and Dexamethasone (0.015 mg/kg) were run as negative and positive controls, respectively. […] This model can be optimized for dosage and choice of biological markers.

thymic atrophy (in words) (thymus)	SMILES	CHANGE IN EAR THICKNESS, LEFT EAR (PBS) (C57BL/6 mice [1])	CHANGE IN EAR THICKNESS, RIGHT EAR (OVA) (C57BL/6 mice [1])	TNFα (1 hr) +/− S.E. (C57BL/6 mice [2]) [pg/mL]	IL-6 (4 hr) +/− S.E. (C57BL/6 mice [2]) [ng/mL]
obvious thymic atrophy	C[C@@H]1C[C@H]2[C@@H]3CCC4=CC(=O)C=C[C@]4(C)[C@@]3(F)[C@@H](O)C[C@]2(C)[C@@]1(O)C(=O)CO [Dex, Dexamethasone]	0.07 +/− 0.61 ×10^−3 inch	3.71 +/− 0.64 ×10^−3 inch	3798.4 ± 415.7	35.2 ± 2.8
–	N[C@@H](Cc1cc(I)c(Oc2cc(I)c(O)c(I)c2)c(I)c1)C(=O)O [Thyroxine]	–	–	4289.5 ± 642.3	37.1 ± 0.9
